Source: patent US9353088B2, “Crystalline pharmaceutical and methods of preparation and use thereof” (SARcode Bioscience Inc., priority 2009, dated 2016)

Test: Dynamic Vapor Sorption (DVS) analysis
Type: physicochemical
Method: Dynamic Vapor Sorption (DVS) analysis was performed with a Surface Measurement Systems DVS-1 water vapor sorption analyzer. The experiments were run by placing the sample on a quartz holder on top of a microbalance, and allowing the sample to equilibrate at 50% relative humidity (r.h.) before starting the pre-defined humidity program. The program proceeded in the following steps: 1 hour at 50% r.h.; 50% to 0% r.h. at a rate of 5% r.h. change per hour; 5 hours at 0% r.h; 0% r.h to […]. at 5% r.h change per hour; 5 hours at 95% r.h.; 95% r.h. to 50% r.h. at a rate of 5% r.h. change per hour, and followed by one hour at 50% r.h.

With CS(=O)(=O)c1cccc(C[C@H](NC(=O)c2c(Cl)cc3c(c2Cl)CCN(C(=O)c2ccc4ccoc4c2)C3)C(=O)O)c1 [Crystalline Form A] the “water content by DVS” value (after mass loss at lowest relative humidity of 0.4%) was 0.5 mole water per mole free acid, the “water content by DVS” value (at the start of the experiment) was “about 0.9 mole water per mole free acid” and the “water content by DVS” value (mass gain at 95% relative humidity) was 1.1 mole water per mole free acid.
With CS(=O)(=O)c1cccc(C[C@H](NC(=O)c2c(Cl)cc3c(c2Cl)CCN(C(=O)c2ccc4ccoc4c2)C3)C(=O)O)c1 [Crystalline Form B] the hygroscopicity (DVS, 50 hours, 5 hours at 95% relative humidity) was “does not appear to be hygroscopic”.
